Assay [1] deals with Phytophthora infestans. Nature of the assay: microbe, parasite or virus in culture. The class given is cell-based. The settings on record: for inhibition of growth at 30 ppm: Phytophthora infestans, 168 h, read-out: control (radial growth) compared to the untreated check; for control (radial growth) compared to the untreated check: 30 ppm in Rye Agar medium, seven days at 18° C.

The test system of assay [2] is Phytophthora infestans. The experiment in a line: whole plant or invertebrate. The class given is in vivo. Conditions: for pest or weed control at 50 ppm: Phytophthora infestans, in Solanum lycopersicum, read-out: control (disease severity) compared to the untreated check; for control (disease severity) compared to the untreated check: 50 ppm spray, preventive, Tomato plants inoculated one day after treatment.

Assay [3] concerns Plasmopara viticola. Nature of the assay: Plasmopara viticola test in grape, preventive. The class given is in vivo. The settings on record: 50 ppm spray, grape seedlings inoculated one day after treatment; for pest or weed control at 50 ppm: Plasmopara viticola, read-out: control (disease severity) compared to the untreated check. The procedure:
Example B: Plasmopara viticola Test in Grape
Compounds were dissolved in 2% DMSO/Acetone & then mixed with water to calibrated spray volume of 50 ml. This 50 ml spray solution was poured into the spray bottles for further applications.
To test the preventive activity of compounds, five week old healthy grape seedlings raised in the greenhouse were sprayed with active compound preparation at the stated application rates inside the spray cabinets using hallow-cone nozzles. One day after treatment, the plants were inoculated with inoculum suspension (Cold sterile water) containing 6×10^6 Plasmopara viticola inoculum. The inoculated plants were then kept in greenhouse chamber at 18-21° C. temperature and 95-100% relative humidity for disease expression. Compounds
A visual assessment of compound's performance was carried by rating the disease severity (0-100% scale) on treated plants on 3, 7, 10 and 15 days after application. Efficacy (% control) of the compounds was calculated by comparing the disease rating in the treatment with untreated control. The sprayed plants were also assessed for compound's phytotoxic effects by recording symptoms like necrosis, chlorosis and stunting.

On to `Cn1nc(C(F)(F)F)cc1OCC(=O)N1CCC(c2nc(C3=NOC(c4c(Cl)cc(Cl)cc4Cl)C3)cs2)CC1` (stereo not shown) [Compound 10, 2-((1-methyl-3-(trifluoromethyl)-1H-pyrazol-5-yl)oxy)-1-(4-(4-(5-(2,4,6-trichlorophenyl)-4,5-dihydroisoxazol-3-yl)thiazol-2-yl)piperidin-1-yl)ethan-1-one], for which, in assay [1], the inhibition of growth at 30 ppm was determined as 70%. Besides, the pest or weed control at 50 ppm in assay [2] and in assay [3] was 90% throughout.

For the compound `Cn1nc(OCC(=O)N2CCC(c3nc(C4=NOC(c5c(Cl)cccc5Cl)C4)cs3)CC2)cc1C(F)(F)F` (stereo not shown) [Compound 15, 1-(4-(4-(5-(2,6-dichlorophenyl)-4,5-dihydroisoxazol-3-yl)thiazol-2-yl)piperidin-1-yl)-2-((1-methyl-5-(trifluoromethyl)-1H-pyrazol-3-yl)oxy)ethan-1-one], in assay [1], the inhibition of growth at 30 ppm was found to be 70%. For the same compound, the pest or weed control at 50 ppm in assay [2] and in assay [3] was 90% throughout.

As for `O=C(COc1ncccc1C(F)(F)F)N1CCC(c2nc(C3=NOC(c4c(Cl)cccc4Cl)C3)cs2)CC1` (stereo not shown) [Compound 27], the inhibition of growth at 30 ppm in assay [1] is 70%. Besides, the pest or weed control at 50 ppm in assay [2] and in assay [3] was 90% throughout.

In the case of `CS(=O)(=O)Oc1cccc(Cl)c1C1CC(c2csc(C3CCN(C(=O)COc4ncccc4C(F)(F)F)CC3)n2)=NO1` (stereo not shown) [Compound 28, 3-chloro-2-(3-(2-(1-(2-((3-(trifluoromethyl)pyridin-2-yl)oxy)acetyl)piperidin-4-yl)thiazol-4-yl)-4,5-dihydroisoxazol-5-yl)phenyl methanesulfonate], the inhibition of growth at 30 ppm in assay [1] worked out at 70%. The pest or weed control at 50 ppm in assay [2] stood at 90%.

As for `O=C(COc1ncccc1C(F)(F)F)N1CCC(c2nc(C3=NOC(c4c(F)cccc4F)C3)cs2)CC1` (stereo not shown) [Compound 29, 1-(4-(4-(5-(2,6-difluorophenyl)-4,5-dihydroisoxazol-3-yl)thiazol-2-yl)piperidin-1-yl)-2-((3-(trifluoromethyl)pyridin-2-yl)oxy) ethan-1-one], in assay [1], the inhibition of growth at 30 ppm was 70%. Further, the pest or weed control at 50 ppm in assay [2] and in assay [3] was 90% each time.

Turning to `O=C(COc1ncccc1C(F)(F)F)N1CCC(c2nc(C3=NOC(c4c(Cl)cc(Cl)cc4Cl)C3)cs2)CC1` (stereo not shown) [Compound 30, 1-(4-(4-(5-(2,4,6-trichlorophenyl)-4,5-dihydroisoxazol-3-yl)thiazol-2-yl)piperidin-1-yl)-2-((3-(trifluoromethyl)pyridin-2-yl)oxy)ethan-1-one], the inhibition of growth at 30 ppm in assay [1] stood at 70%. In addition, the pest or weed control at 50 ppm in assay [2] and in assay [3] was 90% throughout.

Consider `O=C(COc1ncc(Cl)cc1C(F)(F)F)N1CCC(c2nc(C3=NOC(c4c(Cl)cccc4Cl)C3)cs2)CC1` (stereo not shown) [Compound 31, 2-((5-chloro-3-(trifluoromethyl)pyridin-2-yl)oxy)-1-(4-(4-(5-(2,6-dichlorophenyl)-4,5-dihydroisoxazol-3-yl)thiazol-2-yl)piperidin-1-yl)ethan-1-one], for which the inhibition of growth at 30 ppm in assay [1] was 70%. For the same compound, the pest or weed control at 50 ppm in assay [2] and in assay [3] was 90% each time.

Consider `CS(=O)(=O)Oc1cccc(Cl)c1C1CC(c2csc(C3CCN(C(=O)COc4ncc(Cl)cc4C(F)(F)F)CC3)n2)=NO1` (stereo not shown) [Compound 32, 3-chloro-2-(3-(2-(1-(2-((5-chloro-3-(trifluoromethyl)pyridin-2-yl)oxy)acetyl)piperidin-4-yl)thiazol-4-yl)-4,5-dihydroisoxazol-5-yl)phenyl methanesulfonate], for which the inhibition of growth at 30 ppm in assay [1] turned out to be 70%. Also, the pest or weed control at 50 ppm in assay [2] and in assay [3] was 90% each time.

As for `O=C(COc1ncc(Cl)cc1C(F)(F)F)N1CCC(c2nc(C3=NOC(c4c(F)cccc4F)C3)cs2)CC1` (stereo not shown) [Compound 33], the inhibition of growth at 30 ppm in assay [1] stood at 70%. Besides, the pest or weed control at 50 ppm in assay [2] and in assay [3] was 90% throughout.

Turning to `O=C(COc1ncc(Cl)cc1C(F)(F)F)N1CCC(c2nc(C3=NOC(c4c(Cl)cc(Cl)cc4Cl)C3)cs2)CC1` (stereo not shown) [Compound 34], in assay [1], the inhibition of growth at 30 ppm worked out at 70%. In addition, the pest or weed control at 50 ppm in assay [2] and in assay [3] was 90% each time.

With `O=C(COc1ncc(Br)cc1C(F)(F)F)N1CCC(c2nc(C3=NOC(c4c(Cl)cccc4Cl)C3)cs2)CC1` (stereo not shown) [Compound 35, 2-((5-bromo-3-(trifluoromethyl)pyridin-2-yl)oxy)-1-(4-(4-(5-(2,6-dichlorophenyl)-4,5-dihydroisoxazol-3-yl)thiazol-2-yl)piperidin-1-yl)ethan-1-one], the inhibition of growth at 30 ppm in assay [1] amounted to 70%. For the same compound, the pest or weed control at 50 ppm in assay [2] and in assay [3] was 90% throughout.

For the compound `CS(=O)(=O)Oc1cccc(Cl)c1C1CC(c2csc(C3CCN(C(=O)COc4ncc(Br)cc4C(F)(F)F)CC3)n2)=NO1` (stereo not shown) [Compound 36], the inhibition of growth at 30 ppm in assay [1] is 70%. In addition, the pest or weed control at 50 ppm in assay [2] and in assay [3] was 90% in each case.

As to `O=C(COc1ncc(Br)cc1C(F)(F)F)N1CCC(c2nc(C3=NOC(c4c(F)cccc4F)C3)cs2)CC1` (stereo not shown) [Compound 37, 2-((5-bromo-3-(trifluoromethyl)pyridin-2-yl)oxy)-1-(4-(4-(5-(2,6-difluorophenyl)-4,5-dihydroisoxazol-3-yl)thiazol-2-yl)piperidin-1-yl)ethan-1-one], the inhibition of growth at 30 ppm in assay [1] stood at 70%. Besides, the pest or weed control at 50 ppm in assay [2] and in assay [3] was 90% throughout.

With `O=C(COc1ncc(Br)cc1C(F)(F)F)N1CCC(c2nc(C3=NOC(c4c(Cl)cc(Cl)cc4Cl)C3)cs2)CC1` (stereo not shown) [Compound 38], in assay [1], the “control (radial growth) compared to the untreated check” value was determined as 70%. In addition, the “control (disease severity) compared to the untreated check” value in assay [2] and in assay [3] was 90% each time.

On to `Cc1ccc(C(F)(F)F)c(OCC(=O)N2CCC(c3nc(C4=NOC(c5c(Cl)cc(Cl)cc5Cl)C4)cs3)CC2)n1` (stereo not shown) [Compound 39, 2-((6-methyl-3-(trifluoromethyl)pyridin-2-yl)oxy)-1-(4-(4-(5-(2,4,6-trichlorophenyl)-4,5-dihydroisoxazol-3-yl)thiazol-2-yl)piperidin-1-yl)ethan-1-one], for which the inhibition of growth at 30 ppm in assay [1] is 70%. In addition, the pest or weed control at 50 ppm in assay [2] and in assay [3] was 90% in each case.

For `Cc1ccc(C(F)(F)F)c(OCC(=O)N2CCC(c3nc(C4=NOC(c5c(F)cccc5F)C4)cs3)CC2)n1` (stereo not shown) [Compound 40, 1-(4-(4-(5-(2,6-difluorophenyl)-4,5-dihydroisoxazol-3-yl)thiazol-2-yl)piperidin-1-yl)-2-((6-methyl-3-(trifluoromethyl)pyridin-2-yl)oxy)ethan-1-one], the inhibition of growth at 30 ppm in assay [1] was found to be 70%. Also, the pest or weed control at 50 ppm in assay [2] amounted to 90%.

Take `Cc1ccc(C(F)(F)F)c(OCC(=O)N2CCC(c3nc(C4=NOC(c5c(Cl)cccc5Cl)C4)cs3)CC2)n1` (stereo not shown) [Compound 41, 1-(4-(4-(5-(2,6-dichlorophenyl)-4,5-dihydroisoxazol-3-yl)thiazol-2-yl)piperidin-1-yl)-2-((6-methyl-3-(trifluoromethyl)pyridin-2-yl)oxy)ethan-1-one]: in assay [1], the inhibition of growth at 30 ppm came out at 70%. Further, the pest or weed control at 50 ppm in assay [2] and in assay [3] was 90% in each case.

For `COc1ccc(C2CC(c3csc(C4CCN(C(=O)COc5ncc(Cl)cc5C(F)(F)F)CC4)n3)=NO2)cc1` (stereo not shown) [Compound 67], the “control (radial growth) compared to the untreated check” value in assay [1] was found to be 70%. The “control (disease severity) compared to the untreated check” value in assay [2] is 90%.

Consider `CS(=O)(=O)Oc1cccc(Cl)c1C1CC(c2csc(C3CCN(C(=O)COc4ncccc4C(F)F)CC3)n2)=NO1` (stereo not shown) [Compound 89, 3-chloro-2-(3-(2-(1-(2-((3-(difluoromethyl)pyridin-2-yl)oxy)acetyl)piperidin-4-yl)thiazol-4-yl)-4,5-dihydroisoxazol-5-yl)phenyl methanesulfonate], for which the inhibition of growth at 30 ppm in assay [1] turned out to be 70%.

Consider `O=C(COc1ncccc1C(F)F)N1CCC(c2nc(C3=NOC(c4c(Cl)cccc4Cl)C3)cs2)CC1` (stereo not shown) [Compound 90], for which the inhibition of growth at 30 ppm in assay [1] worked out at 70%.

As for `CS(=O)(=O)Oc1cccc2c1COC(c1csc(C3CCN(C(=O)COc4ncccc4C(F)(F)F)CC3)n1)OC2` (stereo not shown) [Compound 91, 3-(2-(1-(2-((3-(trifluoromethyl)pyridin-2-yl)oxy)acetyl)piperidin-4-yl)thiazol-4-yl)-1,5-dihydrobenzo[e][1,3]dioxepin-6-yl methanesulfonate], in assay [1], the inhibition of growth at 30 ppm was determined as 70%.

Turning to `Cc1ccc(C(F)(F)F)c(OCC(=O)N2CCC(c3nc(C4OCc5cccc(OS(C)(=O)=O)c5CO4)cs3)CC2)n1` (stereo not shown) [Compound 92, 3-(2-(1-(2-((6-methyl-3-(trifluoromethyl)pyridin-2-yl)oxy)acetyl)piperidin-4-yl)thiazol-4-yl)-1,5-dihydrobenzo[e][1,3]dioxepin-6-yl methanesulfonate], the inhibition of growth at 30 ppm in assay [1] was found to be 70%.

Source of the values: patent US20200281202A1 (priority 2017, published 2020).
